Measured values taken from US7214767B2, “VHL peptide” (Hiroshi Kanno, priority 2005, dated 2007).

Legend:
neural stem cells = experiment: Cytotoxicity of the method of introduction into cells; type: cell-based
Excerpt: It became clear from this that VHL (157–171) has an activity of inducing neuronal differentiation.

Parkinson's model rat [1] = experiment: Paw reaching test after grafting of VHL peptide-introduced neural stem cells; type: in vivo; settings: peptide-introduced neural stem cells grafted to striatum
Protocol: (§1) Next, it was studied whether the symptom could be improved by grafting of neural stem cells into which VHL (157–171) oligopeptide was introduced within the central nervous system of a nerve disease animal. Parkinson's model rat as a nerve disease animal was prepared by injection of microdose of 6-hydroxydopamine into brain of rat and depletion of unilateral dopamine producing cells. Two weeks later, apomorphine induced rotation was studied and rat rotating not less than 7 times per one minute was determined as Parkinson's disease model. 10^5 neural stem cells into which VHL (157–171) oligopeptide was introduced were grafted to striatum of cerebrum of rat. After grafting, apomorphine induced rotation was determined every week. […] As behavior analysis, paw reaching test (a test wherein an ability to eat pellets placed on stairs by extending one side injured leg is studied.) was conducted and […] (FIG. 6).

Parkinson's model rat [2] = experiment: Apomorphine induced rotation after grafting of VHL peptide-introduced neural stem cells; type: in vivo; settings: after two months; 10^5 peptide-introduced neural stem cells grafted to striatum
Protocol: as §1

[3] = test system: neural stem cells derived from the adult rat hippocampus; experiment: VHL oligopeptide introduced in vitro into neural stem cells using BioPORTER Reagent; type: cell-based; settings: for morphological change compared with control group: 8 hours after introduction
Protocol: The oligopeptide prepared according to the above-described method was introduced in vitro into neural stem cells derived from the adult rat hippocampus at a concentration of 10–1000 ng/ml using BioPORTER Reagent (BioPORTER protein delivery reagent: Gene Therapy Systems, Inc., San Diego, Calif., U.S.A.). […] When this was immunofluorescence stained at a concentration of 100 ng/mL 24 hours after introduction, it was confirmed that 72% of them was differentiated into neurons, and 12% was differentiated into neuroglia cells (FIG. 4). Thereby, it was clarified that VHL could induce neuronal differentiation even by the method of peptide introduction not by introduction of gene.

[4] = test system: Parkinson's disease model rat; experiment: Pathological and histological study of the brain after grafting; type: in vivo; settings: peptide-introduced neural stem cells grafted to striatum
Protocol: as §1

skin stem cells = experiment: Induction of differentiation of skin stem cells by VHL protein (FIG. 1); type: cell-based; settings: neurofilament positive neuron
Excerpt: FIG. 1 is a fluorescence photomicrograph showing induction of differentiation of skin stem cell into neurofilament positive neuron.
A VHL gene, which is the causative gene of von Hippel-Lindau disease, a hereditary disease causing brain tumor (hemangioblastoma) or renal cancer, is a kind of a tumor suppressor gene. This gene was isolated from human chromosome 3 by Dr. Zbar et al.'s group (U.S.A.) in 1993. It has been reported that the VHL gene and the protein are expressed in neurons. However, the function of this gene in the nervous system was unknown. We considered that the gene may be involved in the formation of the nervous system at fetal developmental stages and studied differentiation over time of neural stem cells isolated from a rat fetal brain. […] As a result, when VHL gene is introduced to express VHL protein, neural stem cells are differentiated into neurons. Thus, it was clarified that VHL protein has a function to induce differentiation of nerves.

[5] = 100 ng/mL, 24 hours after introduction, BioPORTER Reagent

## Ac-TLKERCLQVVRSLVKKKWKMRRNQFWVKVQRGK-NH2 [VHL (157–171)-ANT]
Neural stem cells
  cytotoxicity: does not show cytotoxicity

## TLKERCLQVVRSLVK [VHL (157–171) oligopeptide]
Parkinson's model rat [1]
  behavior analysis (paw reaching test, apomorphine induced rotation) compared with control group: significant improvement
Parkinson's model rat [2]
  rats showing zero of apomorphine induced rotation: about 30%
[3]; [5]
  cells differentiated into neuroglia cells (immunofluorescence staining): 12%
  cells differentiated into neurons (immunofluorescence staining): 72%
[3]; BioPORTER Reagent
  morphological change compared with control group: more marked as compared with the control group
[3]; BioPORTER Reagent, listed as VHL peptide
  morphological change compared with control group: marked as compared with control group
[3]; after 4 hours, introduced at 10–1000 ng/ml using BioPORTER Reagent
  concentration at which neural stem cells showed inclination to differentiate to neuron morphologically, elongation of neural spine observed: not less than 10 ng/ml
[4]
  grafted cells taken within the brain: about 70%
  type of the grafted cells taken within the brain: most of them were neurofilament positive neurons
[4]; listed as VHL gene
  type of the grafted cells taken within the brain: most of them are neuronal filaments

## VHL protein: von Hippel-Lindau protein consisting of 213 full length amino acids
Skin stem cells
  differentiation of skin stem cells into neurons: induces differentiation of skin stem cells into neurons
